Data published in patent US20160030416A1, “METHODS OF TREATING B2-BRADYKININ RECEPTOR MEDIATED ANGIOEDEMA” (SHIRE HUMAN GENETIC THERAPIES, INC., priority 2013, published 2016).
pIC50, pKi: −log10 of the molar value.

Assays:
[1] = tested on: plasma extravasation; assay: Plasma extravasation (Evans blue in bladder), oral, C1-INH knockout mice; format: in vivo, C1-INH-KO mice
[2] = target: T1, A3 (h) (Homo sapiens, UniProt P0DMS8); assay: Off-target receptor binding: A3
T1 construct: expressed in transfected cells; host or cells: CHO or HEK 293 (not assigned per receptor)
T1 sequence (P0DMS8 1-318): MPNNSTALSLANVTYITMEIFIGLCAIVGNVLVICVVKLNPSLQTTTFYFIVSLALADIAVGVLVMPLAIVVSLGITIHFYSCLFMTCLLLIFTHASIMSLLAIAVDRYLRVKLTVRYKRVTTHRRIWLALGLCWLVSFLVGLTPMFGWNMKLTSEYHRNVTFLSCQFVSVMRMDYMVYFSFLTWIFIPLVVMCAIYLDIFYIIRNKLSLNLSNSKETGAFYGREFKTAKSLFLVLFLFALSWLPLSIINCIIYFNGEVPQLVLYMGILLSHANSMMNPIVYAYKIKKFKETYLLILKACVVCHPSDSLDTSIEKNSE
Description: (§1) To determine the affinity to the B2-bradykinin receptor, CFMQ was compared to a diverse set of receptors and reference agents in an in vitro assay using cells from rat heart, urinary bladder, cerebral cortex, as well as human recombinant cells (CHO and HEK 293) and other cell lines. Each assay included a ligand at a specific concentration (concentration ranging from 0.007-10 nM), in addition to a non-specific ligand (concentration ranging from […]) for incubation periods ranging from 15 minutes to 6 hours at 4°-37° C. The specific binding to the receptors was defined as the difference between the total binding and the nonspecific binding, determined in the presence of an excess of unlabeled CFMQ. The concentration causing a half-maximal inhibition of control specific binding (IC50 values) and inhibition constants (Ki) were determined, and each reference compound was within the accepted limits of the historic average (±0.5 log units).

[3] = target: T2, NK3 (h) (Homo sapiens, UniProt P29371); assay: Off-target receptor binding: NK3
T2 construct: expressed in transfected cells; host or cells: CHO or HEK 293 (not assigned per receptor)
T2 sequence (P29371 1-465): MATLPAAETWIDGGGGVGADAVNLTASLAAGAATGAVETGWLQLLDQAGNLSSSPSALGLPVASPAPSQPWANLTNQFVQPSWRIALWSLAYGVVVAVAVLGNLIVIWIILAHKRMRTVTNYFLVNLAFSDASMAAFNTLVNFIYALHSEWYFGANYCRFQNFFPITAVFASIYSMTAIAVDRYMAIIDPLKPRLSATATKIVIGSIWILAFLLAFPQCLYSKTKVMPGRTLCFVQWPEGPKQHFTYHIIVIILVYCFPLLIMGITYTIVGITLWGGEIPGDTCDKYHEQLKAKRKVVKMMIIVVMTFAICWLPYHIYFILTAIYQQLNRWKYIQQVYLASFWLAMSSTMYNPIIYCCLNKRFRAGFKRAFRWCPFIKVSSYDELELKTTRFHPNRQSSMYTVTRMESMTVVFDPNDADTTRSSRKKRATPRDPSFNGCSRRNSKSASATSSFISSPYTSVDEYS
Description: as §1

[4] = Plasma kinetics, intravenous, CD-1 mice; format: in vivo, female CD-1 mice
Description: CFMQ (HGT3711) was administered to fasted female CD-1 mice by a single intravenous injection at 1.0 mg/kg, formulated in 100% PEG200. Blood samples were taken via cardiac puncture prior to administration and at 0.083 (5 min), 0.25 (15 min), 0.50 (30 min), 1, 2, 4, and 8 hours post dose. Plasma concentrations of CFMQ (HGT3711) were determined by LC-MS/MS and concentrations below the limit of quantitation (BLOQ=<1 ng/ml) were assigned a value of zero for pharmacokinetic analysis. Nominal dosing concentrations were used in all calculations.

[5] = In vitro microsomal stability, mouse; format: in vitro ADME; details: Mouse (CD-1), Male
Description: (§2) In vitro metabolic stability studies were performed to determine hepatic stability in vivo. CFMQ was incubated in liver microsomal preparations from mouse, rat, dog, mini-pig, and humans, as well as an additional study with monkey and human. CFMQ was incubated with human and animal liver microsomes at 0.3 mg/mL at 37° C. for 30 or 60 minutes. Additional reference compounds were incubated as controls. Following incubation, samples were analyzed by HPLC-MS/MS.

[6] = In vitro microsomal stability, rat; format: in vitro ADME; details: Rat (Wistar)
Description: as §2

[7] = In vitro microsomal stability, mini-pig; format: in vitro ADME; details: Mini-Pig (Gotting), Male
Description: as §2

[8] = target: T3, human B2-bradykinin receptor (Homo sapiens, UniProt P30411); assay: Calcium mobilization assay in human fibroblast (HF15) cells; format: cell-based; set-up: endogenous in cells; host or cells: HF15 human fibroblasts; details: 25 minutes pre-incubation at 25° C., read-out: IC50, inhibition of bradykinin-induced calcium mobilization
T3 sequence (P30411 1-391): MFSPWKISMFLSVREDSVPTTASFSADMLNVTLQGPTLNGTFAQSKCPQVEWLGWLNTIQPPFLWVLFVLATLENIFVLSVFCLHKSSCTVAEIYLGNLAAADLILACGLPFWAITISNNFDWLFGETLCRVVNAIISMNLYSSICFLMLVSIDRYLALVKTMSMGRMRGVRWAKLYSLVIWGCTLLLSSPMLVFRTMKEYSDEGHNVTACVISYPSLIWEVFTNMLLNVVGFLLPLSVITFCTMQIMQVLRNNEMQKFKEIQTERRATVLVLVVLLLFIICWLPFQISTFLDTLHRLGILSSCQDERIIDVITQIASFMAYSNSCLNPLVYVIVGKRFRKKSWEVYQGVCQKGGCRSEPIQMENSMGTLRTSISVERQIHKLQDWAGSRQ
Description: CFMQ was formulated as a 5 nM stock solution in 100% DMSO and serially diluted to 0.04, 0.12, 0.37, 1.11, 3.33, 10 and 30 nM. Human fibroblast (HF15) cells, which express the human B2R were loaded with 100 μL calcium dye solution containing 2.5 mM probenicide and were then pre-incubated with CFMQ for 25 minutes at 25° C. The inhibition effect of CFMQ on bradykinin-mediated calcium mobilization was tested in this system by emission of fluorescence signals, using the height of the resulting peak over the baseline value (relative fluorescence units [RFU] max-min). The percent inhibition for each concentration was used for curve fit and IC50 calculation.

[9] = female, CD-1, mouse, plasma, IV 1 mg/kg
[10] = female, CD-1, mouse, plasma, IV 1 mg/kg, extrapolated to t = 0

pIC50 [2]: 5.12 | pKi [2]: 5.35 | nH [2]: 1.4 | inhibition at 10 µM ([2]; CFMQ at 10 μM): 53% | pIC50 [3]: 5.96 | pKi [3]: 5.57 | nH [3]: 1.1 | inhibition at 10 µM ([3]; CFMQ at 10 μM): 53% | plasma concentration ([4]; IV 1 mg/kg, by 4 hours post-dose, BLOQ=<1 ng/ml): below the BLOQ | AUC(0-inf) [4, 9]: 70.9 ng·h/mL | clearance [4, 9]: 235 mL/min/kg | half-life [4, 9]: 33.6 min | concentration at 0.083 hr ([4]; female, CD-1, mouse, plasma, IV 1 mg/kg, 0.083 hr, read-out: Average Concentration of HGT3711): 162 ng/mL | concentration at 0.25 hr ([4]; female, CD-1, mouse, plasma, IV 1 mg/kg, 0.25 hr, read-out: Average Concentration of HGT3711): 92.9 ng/mL | concentration at 0.5 hr ([4]; female, CD-1, mouse, plasma, IV 1 mg/kg, 0.50 hr, read-out: Average Concentration of HGT3711): 22.4 ng/mL | concentration at 1 hr ([4]; female, CD-1, mouse, plasma, IV 1 mg/kg, 1.0 hr, read-out: Average Concentration of HGT3711): 12.6 ng/mL | concentration at 2 hr ([4]; female, CD-1, mouse, plasma, IV 1 mg/kg, 2.0 hr, read-out: Average Concentration of HGT3711): 3.48 ng/mL | C0 [4, 10]: 214 ng/mL | Tmax [4, 10]: 0 h | AUC(0-t) ([4]; female, CD-1, mouse, plasma, IV 1 mg/kg, read-out: AUClast ± SE): 68.1 ng·h/mL | Vd ([4]; female, CD-1, mouse, plasma, IV 1 mg/kg, read-out: Vss): 6.3 L/kg | % Remaining [30 minutes] ([5]; 30 minutes): 7% | % Remaining [60 minutes] ([5]; 60 minutes): 3% | % Remaining [30 minutes] ([6]; Female): 76% | % Remaining [60 minutes] ([6]; Female): 60% | % Remaining [30 minutes] ([6]; Male): 3% | % Remaining [60 minutes] ([6]; Male): 0% | % Remaining [30 minutes] ([7]; 30 minutes): 74% | % Remaining [60 minutes] ([7]; 60 minutes): 58% | pIC50 [8]: 8.53
Compound: Cc1cc(Cl)c(COc2cccc3c(-n4cc(F)cn4)cc(C)nc23)c(Cn2cccc(C#N)c2=O)n1 [CFMQ, 1-((4-Chloro-3-(((4-(4-fluoro-1H-pyrazol-1-yl)-2-methylquinolin-8-yl)oxy)methyl)-6-methylpyridin-2-yl)methyl)-2-oxo-1,2-dihydropyridine-3-carbonitrile]
efficacy compared with 0.4 mg/kg SC Firazyr ([1]; oral 3.0 mg/kg): nearly as effective | inhibition of EB accumulation in the bladder ([1]; oral 10 mg/kg): ~100% | inhibition of EB accumulation in the bladder ([1]; oral 30 mg/kg): ~100% | adverse reactions ([4]; IV 1.0 mg/kg, mice): No adverse reactions were observed
